Source: patent US10660933B2, “Compositions and methods for inhibition of bacterial infections in human endocervix” (priority 2015, dated 2020)
“Also recorded” adds a separate entry of the source. Ends that are not written are not given here.

What was measured:
[1] = tested on: cytoplasmic Ca2+; assay: Calcium imaging of Ng-inoculated polarized epithelial cells (FluoForte, Fluo-4); format: cell-based, human; conditions: MS11Opa+ and MS11ΔOpa-inoculated polarized epithelial cells, 4 h; 2APB 10 μM, BAPTA 50 μM
Excerpt: Ng inoculation induces Ca^2+-dependent redistribution of active NMII in polarized epithelial cells. A major upstream signaling molecule of MLCK is calmodulin that is activated by Ca^2+. To investigate if Ca^2+ is involved in Ng induced redistribution of active NMII, we determined if Ng inoculation would induce Ca^2+ flux in polarized epithelial cells. We used two Ca^2+ indicators, FluoForte (FIGS. 7A and 7B) and Fluo-4 (FIG. 11) to determine the cytoplasmic Ca^2+ level. Polarized T84 (FIGS. 7A and 7B, and FIG. 11A and FIG. 11B) and HEC-1-B (FIG. 11C and FIG. 11D) were incubated apically with MS11Opa+ or MS11ΔOpa for 4 h. The cells were then loaded with the fluorescent Ca^2+ indicator, and the cell membrane marked by the membrane dye CellMask. Cells were imaged using 3D-CFM (FIG. 7A, and FIGS. 11A and 11C). The mean fluorescence intensity (MFI) of the Ca^2+ dyes in individual cells was measured to estimate the cytoplasmic level of Ca^2+ (FIG. 7B, and FIGS. 11B and 11D). […]
Calcium imaging. […] To quantify the intracellular Ca^2+ level, the cytoplasmic region of individual cells was manually selected based on the CellMask staining in randomly acquired confocal images, and the mean fluorescent intensity (MFI) of Fluoforte and Fluo-4 in the cytoplasmic region was measured using the NIH ImageJ software.

[2] = tested on: phosphorylated myosin light chain (pMLC); assay: pMLC (active NMII) redistribution in Ng-inoculated polarized T84 cells (3D-CFM); format: cell-based, human; conditions: for accumulation of pMLC at Ng adherent sites / apical:lateral FIR of pMLC: polarized T84, Ng 6 h; for junction:non-junction FIR of pMLC: polarized T84, Ng 6 h (Y27632: MS11ΔOpa); for junction:non-junction FIR of pMLC / apical:lateral FIR of pMLC: ML-7 10 μM, PIK 100 μM, Y27632 10 μM, 2APB 10 μM, BAPTA 50 μM
Description: Ng induce and Opa suppresses the redistribution of active non-muscle myosin II in polarized and endocervical epithelial cells. […] We examined the cellular distribution of active NMII after 6-h incubation with Ng, using antibody specific for phosphorylated myosin light chain (pMLC) and 3D-CFM. In uninfected polarized T84 (FIGS. 5A and 5C) and HEC-1-B cells (FIG. 10), pMLC was primarily localized at the apical junction. The polarized distribution of pMLC at the apical surface was quantified by the FIR of pMLC at the apical to the lateral (Apical:Lateral) membrane areas in individual cells using CFM images scanning across the apical and basolateral surfaces (FIGS. 5A and 5B). The polarized distribution pMLC at the apical junction was quantified by the FIR of pMLC at the junction to non-junction (Junction:Non-junction) areas of the apical region using CFM images scanning through the apical junction (FIGS. 5C and 5D). The apical inoculation of MS11Opa+ and MS11ΔOpa caused significant increases in apical:lateral FIR in both polarized T84 (FIGS. 5A and 5B) and HEC-1-B cells (FIG. 10), compared to the no Ng control. There were also significant increases in the junction:non-junction FIR in infected polarized T84 cells, compared to non-infected cells (FIGS. 5C and 5D). […] We further noticed that NMII at the apical surface appeared to accumulate at Ng adherent sites (FIG. 5A, middle panels, arrows).
(§1) Immunofluorescence analysis of polarized epithelial cells. Cells were pretreated with or without NMII kinase inhibitors, Y27632 (10 μM, EMD Millipore), ML-7 (10 μM, EMD Millipore) and PIK (100 μM) or Ca2+ inhibitors, 2APB (10 μM, EMD Millipore) and BAPTA (50 μM, EMD Millipore) for 1 h, and incubated with Ng in the presence or absence of the inhibitors for 6 h. Cell were washed and fixed with 4% paraformaldehyde, permeabilized with 1% Triton X100, and stained with anti-E-cadherin (BD Bioscience), anti-pMLC (Cell Signaling Technology, Carlsbad, Calif.), anti-Ng antibodies, and DAPI for nuclei. Cells were analyzed by CFM. Images were acquired as Z-series of 0.37 μm slices, and 3D composites obtained. Epithelial exfoliation will be quantified using xz images as described for the tissue explants. The distribution of E-cadherin and pMLC was quantitatively analyzed by measuring the FIR at the apical junctional to the cytoplasmic area (from xy images) or at the apical to lateral surface area (from xz images) in individual cells.

[3] = tested on: polarized T84 cells; assay: Exfoliation of polarized T84 cells treated with inhibitors alone, without Ng; format: cell-based, human; conditions: no Ng inoculation, 6 h
Description: Polarized T84 cells were treated with inhibitors for 6 h, fixed, stained to visualize the cell nuclei, and imaged by 3D-CFM. The percentage of cell moving above the epithelial monolayer (dash lines) was determined from three independent experiments. Scale bar, 5 μm. *p≤0.05.
as §1

[4] = tested on: Neisseria gonorrhoeae MS11ΔOpa; assay: Ng subepithelial penetration in human endocervical tissue explants (3D-CFM); format: cell-based
Description: (§2) Human endocervical tissue explants. The tissue explants were cultured as previously described. Endocervical tissues were obtained from patients undergoing voluntary hysterectomies and received within 24 h post-surgery. Samples were cut into ˜2.5 cm (L)×0.6 cm (W)×0.3 cm (H) pieces, incubated in CMRL-1066 (GIBCO, Gaithersburg, Md.) plus antibiotics for 24 h, and then switched to antibiotic-free media for 24 h.
Immunofluorescence analysis of human endocervical tissue explants. Individual endocervical tissue pieces were incubated with Ng at a MOI of ˜10 (based on the average number of endocervical epithelial cells in endocervical tissue pieces) in the presence or absence of the MLCK inhibitor ML-7 (10 μM, EMD Millipore) and PIK (100 μM) (54) on transwells for 24 h. Unassociated Ng were removed by extensive washes at 6 and 12 h. The tissue was fixed, embedded in gelatin, cryopreserved, sectioned crossing the apical and basolateral surfaces of the epithelium, stained for ZO1 (BD Bioscience), pMLC (Cell Signaling Technology, Beverly, Mass.), and Ng (51) by specific antibodies, and nuclei by DAPI (Life Technologies, Carlsbad, Calif.), and analyzed using CFM (Zeiss LSM 710, Carl Zeiss Microscopy LLC, Oberkochen, Germany). […]
To quantify epithelial exfoliation, the number of Ng associated cells localized on the top of the epithelial monolayer (exfoliated) and the total number of Ng associated epithelial cells was counted by visual inspection in each randomly acquired image, to determine the percentage of exfoliated cells. To estimate the level of Ng penetration into the subepithelium, the number of non-exfoliated epithelial cells (in clearly visible epithelial monolayers) with basal Ng staining and the total number of Ng associated epithelial cells were visually counted to calculate the percentage of infected epithelial cells with Ng penetration into the basolateral side. […] To quantify the redistribution of pMLC, the fluorescence intensity ratios (FIR) of pMLC staining at the apical to lateral in individual epithelial cells were determined using average FI as previously described.

[5] = tested on: polarized T84 cells; assay: Ng-induced exfoliation of polarized T84 monolayers (3D-CFM); format: cell-based, human; conditions: 6 h, inhibitor 1 h before and during, ML-7 10 μM, PIK 100 μM, Y27632 10 μM; for exfoliation of MS11ΔOpa-infected epithelial cells from T84 monolayers: 2APB 10 μM
Excerpt: (§3) To quantify epithelial exfoliation, the number of Ng associated cells localized on the top of the epithelial monolayer (exfoliated) and the total number of Ng associated epithelial cells was counted by visual inspection in each randomly acquired image, to determine the percentage of exfoliated cells. To estimate the level of Ng penetration into the subepithelium, the number of non-exfoliated epithelial cells (in clearly visible epithelial monolayers) with basal Ng staining and the total number of Ng associated epithelial cells were visually counted to calculate the percentage of infected epithelial cells with Ng penetration into the basolateral side. To evaluate the disruption of the apical junction, the number of Ng associated epithelial cells that lost continuously apical staining of the junctional protein ZO1 and the total number of Ng associated epithelial cells were visually counted to calculate the percentage of Ng associated epithelial cells with apical junction disassembly. To quantify the redistribution of pMLC, the fluorescence intensity ratios (FIR) of pMLC staining at the apical to lateral in individual epithelial cells were determined using average FI as previously described.
as §1

[6] = tested on: phosphorylated myosin light chain (pMLC); assay: pMLC redistribution in Ng-inoculated human endocervical tissue explants; format: cell-based; conditions: MS11ΔOpa-inoculated endocervical tissue explants, 24 h
Description: To explore the possibility of that Ng induced NMII redistribution occurs in vivo, we incubated human endocervical tissue explants with MS11ΔOpa for 24 h. Cryo-sections of the endocervical tissue were stained for pMLC, Ng and nuclei. In addition to its apical junction localization, pMLC was concentrated at the basal surface of the endocervical epithelial cells contacting with the basal membrane (FIG. 6A, upper panels). When incubated with MS11ΔOpa, there was a redistribution of pMLC from the basal to apical surface, resulting in a significant higher apical:lateral FIR in Ng inoculated tissue explants than that in no Ng control (FIG. 6), similar to what we observed in polarized T84 (FIGS. 5A and 5B) and HEC-1-B cells (FIG. 10). Furthermore, pMLC at the apical surface of the endocervical epithelial cells also concentrated at Ng adherent sites (FIG. 6A, second row, white arrows), but not at the membrane of cells neighboring exfoliating cells (FIG. 6A, second row, orange arrows). These observations confirm that Ng increase the relative amount of activated NMII at the apical surface of the endocervical epithelial cells in human tissue explants. […]
(§4) Immunofluorescence analysis of human endocervical tissue explants. […] The tissue was fixed, embedded in gelatin, cryopreserved, sectioned crossing the apical and basolateral surfaces of the epithelium, stained for ZO1 (BD Bioscience), pMLC (Cell Signaling Technology, Beverly, Mass.), and Ng (51) by specific antibodies, and nuclei by DAPI (Life Technologies, Carlsbad, Calif.), and analyzed using CFM (Zeiss LSM 710, Carl Zeiss Microscopy LLC, Oberkochen, Germany). […]
as §3, with “To quantify the redistribution of pMLC, the fluorescence intensity ratios (FIR) of pMLC staining at the apical to lateral in individual epithelial cells were determined using average FI as previously described.” left out

[7] = tested on: human endocervical tissue explants; assay: Ng-induced epithelial exfoliation of human endocervical tissue explants (3D-CFM); format: cell-based; conditions: MS11ΔOpa, 24 h; ML-7 10 μM, PIK 100 μM
Description: as §2, §4
To quantify epithelial exfoliation, the number of Ng associated cells localized on the top of the epithelial monolayer (exfoliated) and the total number of Ng associated epithelial cells was counted by visual inspection in each randomly acquired image, to determine the percentage of exfoliated cells. […] To quantify the redistribution of pMLC, the fluorescence intensity ratios (FIR) of pMLC staining at the apical to lateral in individual epithelial cells were determined using average FI as previously described.

[8] = tested on: Neisseria gonorrhoeae MS11; assay: Ng adherence, invasion, and transmigration assays on polarized epithelial cells; format: cell-based; conditions: for transmigration of MS11ΔOpa across the polarized T84 monolayer / Ng invasion into polarized T84 cells (gentamicin resistance): 6 h; for transmigration of MS11ΔOpa across the polarized T84 monolayer: ML-7 10 μM, PIK 100 μM, 2APB 10 μM, Y27632 10 μM; for Ng adherence to polarized T84 cells / Ng invasion into polarized T84 cells (gentamicin resistance): MS11ΔOpa, with inhibitors; for Ng adherence to polarized T84 cells: 3 h
Description: Ng adherence, invasion, and transmigration assays. The assays were performed as previously described. Briefly, polarized epithelial cells that were pretreated with or without the inhibitors for 1 h were incubated apically with Ng at 37° C. for 3 h for adherence and 6 h for invasion and transmigration assays with or without the inhibitors. Ng in the basolateral media were cultured and counted as transmigrated bacteria. Cells were washed and lysed to count adherent Ng. Cells were treated with gentamicin, washed, and lysed to count bacteria that were resistant to gentamicin treatment as invaded Ng.

[9] = tested on: Neisseria gonorrhoeae; assay: Ng growth; format: cell-based; conditions: FIG. 13

| Molecule | MFI of the Ca2+ indicators (cytoplasmic Ca2+ level) [1] | accumulation of pMLC at Ng adherent sites [2] | junction:non-junction FIR of pMLC [2] | apical:lateral FIR of pMLC [2] | epithelial exfoliation with inhibitors alone [3] | Ng penetration into human endocervical epithelia ([4]; FIG. 12A-B) | percentage of epithelial cells with basally associated Ng ([4]; MS11ΔOpa, 24 h, ML-7 10 μM or PIK 100 μM, 27% without inhibitor) [%] | exfoliation of MS11ΔOpa-infected epithelial cells from T84 monolayers [5] | pMLC accumulation at Ng adherent sites [6] | apical:lateral FIR of pMLC ([6]; ML-7 10 μM, PIK 100 μM) | epithelial exfoliation of human endocervical tissue explants [7] | transmigration of MS11ΔOpa across the polarized T84 monolayer [8] | Ng trans-migration across polarized human epithelial cells ([8]; FIG. 12C) | Ng adherence to polarized T84 cells [8] | Ng invasion into polarized T84 cells (gentamicin resistance) [8] | Ng growth [9] | exfoliation of MS11Opa+-infected epithelial cells from T84 monolayers ([5]; MS11Opa+) |
| --- | --- | --- | --- | --- | --- | --- | --- | --- | --- | --- | --- | --- | --- | --- | --- | --- | --- |
| O=C(O)CN(CC(=O)O)c1ccccc1OCCOc1ccccc1N(CC(=O)O)CC(=O)O [BAPTA] | back to the basal level | decreased | decreased | decreased |  |  |  |  |  |  |  |  |  |  |  |  |  |
| Cc1ccc2c(c1)C(=O)C1(O)CCN(c3ccccc3)C1=N2 (centres unmarked) [blebbistatin] |  |  |  |  | increased epithelial exfoliation |  |  |  |  |  |  |  |  |  |  |  |  |
| PIK: peptide MLCK inhibitor comprising SEQ ID NO:1 (lys-arg-arg-tyr-lys-tyr-lys-lys-arg) with at least one D-amino acid; from U.S. Pat. No. 7,585,844 (KRRYKYKKR; also: at least one D-amino acid, places not given here) |  | significantly reduced | significantly reduced | significantly reduced | did not affect epithelial exfoliation | inhibits Ng penetration; also recorded: robust inhibition | 7.1 | reduced the exfoliation | significantly reduced | significantly reduced | decreased the epithelial exfoliation of human endocervical tissue explants to the basal level | significantly reduced the transmigration | inhibits | none of these inhibitors had any significant effect | none of these inhibitors had any significant effect | suppresses Ng growth |  |
| C[C@@H](N)[C@H]1CC[C@H](C(=O)Nc2ccncc2)CC1 [Y27632] |  |  | further increased |  |  |  |  | did not significantly change the percentage of epithelial exfoliation |  |  |  | had no impact |  | had no impact | had no impact |  | did not significantly change the percentage of epithelial exfoliation |
